Results on 13 compounds are retold here after PubChem BioAssay (NCI).

Molecules are shown by their SMILES.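 All cell lines were grown in 96-well plates and treated with compound for 48 hours. Here, GI50 denotes the concentration required for 50% inhibition of growth. TGI marks complete inhibition of growth.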 Bounds are passed on as bounds.

Holding throughout (assay): NCI-60 cell line screen, 48 h
For test [1], the system named is MALME-3M melanoma.
Test [2] deals with OVCAR-4 ovarian.
Test [3] relates to NCI-H23 lung.
Test [4] concerns UACC-62 melanoma.
Test [5] has as its system RXF 393 renal.
Test [6] has as its system KM12 colon.
Test [7] has as its system HOP-92 NSCLC.
The test system of test [8] is PC-3 prostate.
In test [9] the test system is BT-549 breast.
In test [10] the test system is COLO 205 colon.
Test [11] relates to CCRF-CEM leukemia.
Test [12] concerns SK-MEL-2 melanoma.
The subject of test [13] is T-47D breast.
The subject of test [14] is U251 CNS.
Test [15] relates to SF-295 CNS.
Test [16] concerns SN12C renal.
Test [17] deals with RPMI-8226 leukemia.
For test [18], the system named is K-562 leukemia.

Regarding `O=C(/C=C/c1ccccc1)CSc1nc2ccc(I)cc2c(=O)n1Cc1ccccc1`, the TGI in test [1] is 51.3 µM; in [2], more than 100 µM; in [3] it was more than 100 µM; in [4], more than 100 µM; in test [5] it was more than 94.5 µM; in [6] it was more than 100 µM. The TGI in [7] was 55.2 µM; in [8], more than 96.4 µM; in [9], more than 100 µM; in [10], more than 67.8 µM; in test [11] it was more than 59.2 µM; in test [12], 99 µM. Further, the TGI is more than 100 µM in test [13]; more than 100 µM in test [14]; more than 70.6 µM in test [15]; 30.8 µM in test [16]; more than 88 µM in test [17]; more than 100 µM in [18].
In the case of `Cc1n[nH]c(=O)n1/N=C\CC/C=N\n1c(C)n[nH]c1=O`, the TGI in test [1], in test [2], in test [3], in test [4], in [5] and in test [6] was more than 100 µM in each case. Moreover, the TGI in test [7], in test [8], in [9], in test [10], in test [11] and in test [12] was more than 100 µM throughout. Moreover, the TGI in test [13], in test [14], in [15], in test [16], in test [17] and in test [18] was more than 100 µM throughout.
Take `C=C1C(=O)O[C@H]2[C@H]3O[C@@H](C[C@@H]12)[C@@]1(C)CC[C@H](O1)C(C)=CCC[C@H]3C`: the TGI came to 3.15 µM in test [1]; 3.27 µM in test [2]; 2.96 µM in test [3]; 4.05 µM in test [4]; 3.75 µM in [5]; 3.76 µM in test [6]. For the same compound, the TGI in [7] was 3.45 µM; in [8], 2.97 µM; in [9] it was 2.07 µM; in [10] it was 3.47 µM; in test [11] it was 1.98 µM; in test [12], 4.11 µM. The TGI is 6.3 µM in test [13]; 2.97 µM in [14]; 17.9 µM in [15]; 4.05 µM in test [16]; 2.46 µM in [17]; 3.09 µM in test [18].
As for `COc1cc(Oc2nc3c(N)cc(C(F)(F)F)cc3nc2-c2ccccc2)cc(OC)c1OC`, the TGI in [1] is 11.5 µM; in [2], more than 100 µM; in [3], more than 63.6 µM; in test [4], 15.9 µM; in test [5] it was 52 µM; in [6], more than 100 µM. Further, the TGI was more than 65.4 µM in test [7]; 29.5 µM in test [8]; 34.5 µM in test [9]; more than 80.7 µM in test [10]; more than 31.6 µM in [11]; 21 µM in [12]. Also, the TGI in test [13] was more than 100 µM; in test [14] it was more than 45.7 µM; in test [15], more than 29 µM; in [16], more than 100 µM; in test [17], more than 100 µM; in test [18], 6.6 µM.
In the case of `COc1cccc(C2SCC(=O)N2c2ccc(-n3c(-c4ccccc4)nc4ccccc4c3=O)cc2)c1OC` (stereo not given), the TGI in test [1], in [2], in test [3], in test [4], in test [5] and in [6] was more than 100 µM each time. For the same compound, the TGI in test [7], in test [8], in [9], in [10], in [11] and in test [12] was more than 100 µM in each case. For the same compound, the TGI in [13], in [14], in test [15], in [16], in test [17] and in test [18] was more than 100 µM in each case.
In the case of `COc1ccc(C2(O)c3ccccc3C(=O)N(C)C2(O)c2ccc(OC)cc2)cc1` (stereo not given), the TGI was more than 100 µM in test [1]; more than 100 µM in test [2]; more than 100 µM in test [3]; more than 100 µM in test [4]; more than 100 µM in test [5]; 89.4 µM in [6]. In addition, the TGI in test [7] is more than 100 µM; in test [8], more than 100 µM; in test [9] it was more than 100 µM; in test [10], 60.1 µM; in test [11] it was more than 100 µM; in test [12] it was more than 100 µM. The TGI in test [13], in test [14], in test [15], in [16], in [17] and in test [18] was more than 100 µM throughout.
For the compound `O=C1Nc2ccccc2/C1=C/c1c(Cl)[nH]c2ccc(O)cc12`, the TGI in test [1] was found to be 15.7 µM; in [2], 38.5 µM; in test [3] it was 13.8 µM; in test [4], 6.04 µM; in [5], 9.02 µM; in [6], 15.6 µM. Further, the TGI in [7] came out at 45 µM; in test [8], 16.3 µM; in test [9], 18.9 µM; in test [10] it was 6.4 µM; in test [11], 10.1 µM; in test [12], 12.7 µM. The TGI in test [13] is 28.3 µM; in [14] it was 14.5 µM; in test [15] it was more than 25.5 µM; in [16] it was 5.22 µM; in test [17], 14.1 µM; in [18] it was 17.1 µM.
Take `CCOC(=O)/C=C(\C(=O)OCC)n1ccc(=O)n(CC(=O)OCC)c1=O`: the TGI in [1] was 5.41 µM; in test [2], more than 31.2 µM; in test [3], 28.1 µM; in test [4] it was 19.2 µM; in [5] it was 2.97 µM; in [6], 30.8 µM. For the same compound, the TGI in test [7] is 3.06 µM; in test [8], 11.2 µM; in test [9], 29.1 µM; in test [10], 3.16 µM; in test [11] it was 3.29 µM; in test [12], 29.1 µM. The TGI amounted to 7.39 µM in [13]; 19.5 µM in test [14]; 34.6 µM in test [15]; 9.38 µM in test [16]; 7.67 µM in test [17]; 4 µM in test [18]. For the same compound, in [17], the GI50 is 2.81 µM.
On to `CC(C)/C(Cl)=N\OC(=O)Nc1ccc(F)cc1F`, for which the TGI in test [1] stood at 3.58 µM; in test [2] it was 10.3 µM; in test [3], 30.1 µM; in [4] it was 38.7 µM; in test [5] it was 12.6 µM; in test [6], 35.1 µM. For the same compound, the TGI in test [7] was 3.61 µM; in [8], 31.6 µM; in [9], 25.9 µM; in test [10] it was 3.52 µM; in test [11] it was more than 21.7 µM; in test [12], 28.2 µM. Moreover, the TGI was 47.3 µM in test [13]; 32.8 µM in [14]; 28.3 µM in test [15]; 21.1 µM in [16]; 75.2 µM in [17]; more than 100 µM in test [18].
Regarding `Cc1ccc(S(=O)(=O)NNC2(NS(=O)(=O)c3ccc(Cl)cc3)C(Cl)=C(Cl)C(=O)c3ccccc32)cc1` (stereo not given), the TGI amounted to 33.2 µM in [1]; 30.1 µM in [2]; 34.1 µM in test [3]; 31 µM in test [4]; 31.1 µM in [5]; 35.2 µM in test [6]. Also, the TGI was determined as 41.6 µM in test [7]; 33.5 µM in test [8]; 29.1 µM in [9]; 34.9 µM in [10]; 63 µM in test [11]; 50.6 µM in [12]. The TGI is more than 100 µM in test [13]; 57.3 µM in [14]; 51.4 µM in test [15]; 31.6 µM in test [16]; 67 µM in test [17]; 36.1 µM in test [18].
As for `c1ccc2cc(CNCCOCCOCCNCc3ccc4ccccc4c3)ccc2c1`, the TGI in test [1] came to 3.9 µM; in test [2] it was 5.78 µM; in [3], 4 µM; in test [4], 3.54 µM; in test [5], 3.52 µM; in [6], 3.16 µM. For the same compound, the TGI was 3.14 µM in test [7]; 5.3 µM in [8]; 3.3 µM in test [9]; 3.01 µM in [10]; 4.46 µM in test [11]; 3.65 µM in [12]. In addition, the TGI was 4.95 µM in test [13]; 4.07 µM in test [14]; 3.11 µM in [15]; 4.18 µM in test [16]; 4.31 µM in test [17]; 2.79 µM in [18].
For `Cn1c(=O)c2c(ncn2CCCCOc2ccc3c(c2)[n+]([O-])nc(N)[n+]3[O-])n(C)c1=O`, the TGI in [1] was more than 100 µM; in test [2] it was more than 100 µM; in [3], more than 100 µM; in test [4], 42 µM; in [5] it was 80.4 µM; in test [6], more than 100 µM. Also, the TGI in test [7] is 33.4 µM; in [8], more than 100 µM; in test [9], 70.6 µM; in test [10] it was 43.2 µM; in [11], more than 100 µM; in test [12], more than 100 µM. Besides, the TGI in test [13] is 12.1 µM; in [14], 91.8 µM; in test [15], more than 100 µM; in test [16], more than 100 µM; in test [17] it was more than 100 µM; in test [18], more than 100 µM.
Turning to `CCOP(=O)(OCC)C1=C(c2ccccc2)OC(N)=C(C#N)C1c1ccc(Cl)cc1` (stereo not given), the TGI in test [1], in test [2], in test [3], in [4], in test [5] and in [6] was more than 100 µM each time. Besides, the TGI in [7], in [8], in test [9], in test [10], in test [11] and in test [12] was more than 100 µM in each case. Further, the TGI in [13], in [14], in [15], in [16], in test [17] and in [18] was more than 100 µM throughout.
